# Source: PubChem BioAssay AID248 (DTP/NCI, 2004)
# Several values for one entry are separate records, joined by “and”; a condition that tells them apart may be missing. Equal entries are not always repeated. Toxic doses and inconclusive results are not listed. Peptide text beside a SMILES is read from it. * marks the point of attachment. Boc = CC(C)(C)OC(=O)*; Bn = c1ccc(C*)cc1
# Tested on: L1210 leukemia ip in BDF1 mice, survival T/C
# Experiment: NCI In Vivo Anticancer Drug Screen. Data for tumor model L1210 Leukemia (intraperitoneal) in B6D2F1 (BDF1) mice
# Settings: endpoint: mean survival time, higher = longer survival
# How it was run: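 Each compound was tested against a transplantable tumor grown in mice. The endpoint was survival, with treated animals benchmarked against vehicle controls as a simple ratio.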
# [1] = dose: 100.0 mg/kg/injection, schedule: Q01DX009 (ip), vehicle: saline with Tween-80
# [2] = dose: 200.0 mg/kg/injection, schedule: Q01DX009 (ip), vehicle: saline with Tween-80
# [3] = dose: 100.0 mg/kg/injection, schedule: Q04DX002 (ip), vehicle: Klucel (hydroxypropylcellulose) (HPC)
# [4] = dose: 200.0 mg/kg/injection, schedule: Q04DX002 (ip), vehicle: Klucel (hydroxypropylcellulose) (HPC)
# [5] = dose: 400.0 mg/kg/injection, schedule: Q04DX002 (ip), vehicle: Klucel (hydroxypropylcellulose) (HPC)
# [6] = dose: 50.0 mg/kg/injection, schedule: Q01DX005 (ip), vehicle: saline
# [7] = dose: 200.0 mg/kg/injection, schedule: Q01DX005 (ip), vehicle: saline
# [8] = dose: 10.0 mg/kg/injection, schedule: Q01DX001 (ip), vehicle: saline
# [9] = dose: 20.0 mg/kg/injection, schedule: Q01DX001 (ip), vehicle: saline
# [10] = dose: 100.0 mg/kg/injection, schedule: Q04DX003 (ip), vehicle: saline with Tween-80
# [11] = dose: 200.0 mg/kg/injection, schedule: Q04DX003 (ip), vehicle: saline with Tween-80
# [12] = dose: 400.0 mg/kg/injection, schedule: Q04DX003 (ip), vehicle: saline with Tween-80
# [13] = dose: 100.0 mg/kg/injection, schedule: Q01DX009 (ip), vehicle: Klucel (hydroxypropylcellulose) (HPC)
# [14] = dose: 100.0 mg/kg/injection, schedule: Q04DX003 (ip), vehicle: Klucel (hydroxypropylcellulose) (HPC)
# [15] = dose: 400.0 mg/kg/injection, schedule: Q01DX009 (ip), vehicle: saline with Tween-80
# [16] = dose: 200.0 mg/kg/injection, schedule: Q01DX009 (ip), vehicle: Klucel (hydroxypropylcellulose) (HPC)
# [17] = dose: 400.0 mg/kg/injection, schedule: Q01DX009 (ip), vehicle: Klucel (hydroxypropylcellulose) (HPC)
# [18] = dose: 100.0 mg/kg/injection, schedule: Q01DX001 (ip), vehicle: saline
# [19] = dose: 200.0 mg/kg/injection, schedule: Q01DX001 (ip), vehicle: saline
compound,measurement,setting,value
O=C(COc1ccccc1)NCc1cccc(Cl)c1,T/C,"dose: 100.0 mg/kg/injection, schedule: Q01DX009 (ip), vehicle: gum acacia",99 % of control
same,T/C,"dose: 200.0 mg/kg/injection, schedule: Q01DX009 (ip), vehicle: gum acacia",92 % of control
same,T/C,"dose: 400.0 mg/kg/injection, schedule: Q01DX009 (ip), vehicle: gum acacia",92 % of control
COc1cc(CC2=NCCc3cc(OC)c(OCc4ccccc4)cc32)ccc1OCc1ccccc1,T/C,[1],94 % of control
same,T/C,[2],100 % of control
O=C(Nc1ccc(Cl)cc1)Nc1ncccn1,T/C,[3],96 % of control
same,T/C,[4],93 % of control
same,T/C,[5],96 % of control
N#Cc1c(NN)n(C2OC(CO)C(O)C2O)c2ncnc(N)c12 (stereo not given),T/C,"dose: 25.0 mg/kg/injection, schedule: Q01DX005 (ip), vehicle: saline",107 % of control
same,T/C,[6],90 % of control
same,T/C,"dose: 100.0 mg/kg/injection, schedule: Q01DX005 (ip), vehicle: saline",105 % of control
same,T/C,[7],96 % of control
CCSc1ncc(C)c(Cl)n1,T/C,"dose: 100.0 mg/kg/injection, schedule: Q01DX009 (ip), vehicle: water",103 % of control
same,T/C,"dose: 100.0 mg/kg/injection, schedule: Q04DX003 (ip), vehicle: water",100 % of control
same,T/C,"dose: 200.0 mg/kg/injection, schedule: Q01DX009 (ip), vehicle: water",94 % of control
same,T/C,"dose: 200.0 mg/kg/injection, schedule: Q04DX003 (ip), vehicle: water",108 % of control
same,T/C,"dose: 400.0 mg/kg/injection, schedule: Q01DX009 (ip), vehicle: water",100 % of control
same,T/C,"dose: 400.0 mg/kg/injection, schedule: Q04DX003 (ip), vehicle: water",100 % of control
CCOC(=O)C1=NC=NC1=[N+]=[N-],T/C,"dose: 5.0 mg/kg/injection, schedule: Q01DX001 (ip), vehicle: saline",92 % of control
same,T/C,[8],94 % of control
same,T/C,[9],100 % of control
CSc1nn2c(SC)nnc2s1,T/C,"dose: 50.0 mg/kg/injection, schedule: Q01DX001 (ip), vehicle: carboxymethylcellulose (CMC)",104 % of control
same,T/C,"dose: 100.0 mg/kg/injection, schedule: Q01DX001 (ip), vehicle: carboxymethylcellulose (CMC)",101 % of control
same,T/C,"dose: 200.0 mg/kg/injection, schedule: Q01DX001 (ip), vehicle: carboxymethylcellulose (CMC)",120 % of control
CC(C)C(NC(=O)CCNC(=O)OCc1ccccc1)C(=O)OCc1ccccc1 (stereo not given),T/C,[10],93 % of control
same,T/C,[11],92 % of control
same,T/C,[12],95 % of control
CCc1cccc(CC)c1N1C(=O)C2C(C1=O)C1(Cl)C(Cl)=C(Cl)C2(Cl)C1(Cl)Cl (stereo not given),T/C,"dose: 25.0 mg/kg/injection, schedule: Q01DX009 (ip), vehicle: Klucel (hydroxypropylcellulose) (HPC)",98 % of control
same,T/C,"dose: 25.0 mg/kg/injection, schedule: Q04DX003 (ip), vehicle: Klucel (hydroxypropylcellulose) (HPC)",91 % of control
same,T/C,"dose: 50.0 mg/kg/injection, schedule: Q01DX009 (ip), vehicle: Klucel (hydroxypropylcellulose) (HPC)",102 % of control
same,T/C,"dose: 50.0 mg/kg/injection, schedule: Q04DX003 (ip), vehicle: Klucel (hydroxypropylcellulose) (HPC)",93 % of control
same,T/C,[13],105 % of control
same,T/C,[14],106 % of control and 88 % of control
CCCC(=O)N1CCCC1,T/C,"dose: 100.0 mg/kg/injection, schedule: Q04DX002 (ip), vehicle: saline",107 % of control
same,T/C,"dose: 200.0 mg/kg/injection, schedule: Q04DX002 (ip), vehicle: saline",103 % of control
same,T/C,"dose: 400.0 mg/kg/injection, schedule: Q04DX002 (ip), vehicle: saline",111 % of control
COc1cc(OC)c(Br)cc1C,T/C,[1],100 % of control
same,T/C,[10],100 % of control
same,T/C,[2],101 % of control
same,T/C,[11],96 % of control
same,T/C,[15],102 % of control
same,T/C,[12],104 % of control
CC1CSCC(C)O1 (stereo not given),T/C,"dose: 50.0 mg/kg/injection, schedule: Q01DX009 (ip), vehicle: saline with Tween-80",95 % of control
same,T/C,[1],284 % of control
same,T/C,[2],95 % of control
Oc1ccc(NC(=S)Nc2ccccc2)cc1,T/C,[1],93 % of control
same,T/C,[2],88 % of control
same,T/C,[15],92 % of control
CC1=NNC(=O)C1,T/C,"dose: 50.0 mg/kg/injection, schedule: Q01DX009 (ip), vehicle: carboxymethylcellulose (CMC)",100 % of control
same,T/C,"dose: 100.0 mg/kg/injection, schedule: Q01DX009 (ip), vehicle: carboxymethylcellulose (CMC)",114 % of control
same,T/C,[14],89 % of control
same,T/C,[10],112 % of control
same,T/C,"dose: 200.0 mg/kg/injection, schedule: Q01DX009 (ip), vehicle: carboxymethylcellulose (CMC)",114 % of control
same,T/C,"dose: 200.0 mg/kg/injection, schedule: Q04DX003 (ip), vehicle: Klucel (hydroxypropylcellulose) (HPC)",98 % of control
same,T/C,[11],105 % of control
same,T/C,"dose: 400.0 mg/kg/injection, schedule: Q04DX003 (ip), vehicle: Klucel (hydroxypropylcellulose) (HPC)",96 % of control
same,T/C,[12],112 % of control
COc1ccc(C2(OC(=O)c3ccc([N+](=O)[O-])cc3)C3C=CC2CC3)cc1 (stereo not given),T/C,[3],87 % of control
same,T/C,[4],107 % of control
same,T/C,[5],90 % of control
CC(C)(C)[CH2][Sn]([CH2]C(C)(C)C)([CH2]C(C)(C)C)[c]1ccc(-c2ccccc2)cc1,T/C,[3],111 % of control
same,T/C,[4],92 % of control
same,T/C,[5],92 % of control
O=Cc1ccc(OS(=O)(=O)c2ccc([N+](=O)[O-])cc2)cc1,T/C,[13],97 % of control
same,T/C,[16],98 % of control
same,T/C,[17],90 % of control
Nc1nccnc1N,T/C,"dose: 50.0 mg/kg/injection, schedule: Q01DX009 (ip), vehicle: saline",103 % of control
same,T/C,[18],102 % of control
same,T/C,"dose: 100.0 mg/kg/injection, schedule: Q01DX009 (ip), vehicle: saline",105 % of control
same,T/C,[19],96 % of control
CC(C)(C)C1CCC2SC(C)(C(C)(C)C)CC(C(C)(C)C)C2C1 (stereo not given),T/C,"dose: 100.0 mg/kg/injection, schedule: Q01DX001 (ip), vehicle: saline with Tween-80",104 % of control
same,T/C,"dose: 200.0 mg/kg/injection, schedule: Q01DX001 (ip), vehicle: saline with Tween-80",98 % of control
same,T/C,"dose: 400.0 mg/kg/injection, schedule: Q01DX001 (ip), vehicle: saline with Tween-80",91 % of control
O=C1COc2ccccc21,T/C,"dose: 50.0 mg/kg/injection, schedule: Q01DX001 (ip), vehicle: saline",97 % of control
same,T/C,[18],100 % of control
same,T/C,[19],100 % of control
same,T/C,"dose: 400.0 mg/kg/injection, schedule: Q01DX001 (ip), vehicle: saline",100 % of control
COc1ccc(Cl)cc1NC(=O)Nc1ccc(Cl)cc1[N+](=O)[O-],T/C,[13],100 % of control
same,T/C,[16],94 % of control
same,T/C,[17],97 % of control
CN(/N=C/c1ccccc1)C(=N)N,T/C,"dose: 5.0 mg/kg/injection, schedule: Q01DX009 (ip), vehicle: saline",106 % of control
same,T/C,[8],98 % of control
same,T/C,"dose: 10.0 mg/kg/injection, schedule: Q01DX009 (ip), vehicle: saline",93 % of control
same,T/C,"dose: 10.0 mg/kg/injection, schedule: Q04DX003 (ip), vehicle: saline",101 % of control
same,T/C,[9],101 % of control
same,T/C,"dose: 20.0 mg/kg/injection, schedule: Q01DX009 (ip), vehicle: saline",104 % of control
same,T/C,"dose: 20.0 mg/kg/injection, schedule: Q04DX003 (ip), vehicle: saline",97 % of control
same,T/C,"dose: 40.0 mg/kg/injection, schedule: Q01DX001 (ip), vehicle: saline",93 % of control
same,T/C,"dose: 40.0 mg/kg/injection, schedule: Q04DX003 (ip), vehicle: saline",103 % of control
same,T/C,"dose: 62.5 mg/kg/injection, schedule: Q04DX003 (ip), vehicle: saline",117 % of control
same,T/C,"dose: 75.0 mg/kg/injection, schedule: Q01DX001 (ip), vehicle: saline",100 % of control
CC(C)(C)OC(=O)NC(CO)C(=O)NC(Cc1ccc(OCc2ccccc2)cc1)C(=O)NCC(=O)O (stereo not drawn) (Boc-Ser-Tyr(Bn)-Gly-OH; configuration not given here),T/C,[6],100 % of control
same,T/C,[7],105 % of control
same,T/C,"dose: 400.0 mg/kg/injection, schedule: Q01DX005 (ip), vehicle: saline",91 % of control
CC(CN1c2ccccc2Sc2ccccc21)[N+](C)(C)C (stereo not given),T/C,[18],88 % of control
